Source: US20240287138A1, “CYCLIC PEPTIDES FOR INHIBITING TNF RECEPTOR 1 ACTIVITY” (Merck Sharp & Dohme LLC, priority 2023, published 2024)
Numbered stars: 1 amine (or outer) side, 2 acyl side, 3 side chain; on linkers, the order of the positions; unused ones are H or OH. Square brackets hold non-standard residues; d marks the D form. Peptide text beside a SMILES is read from it. * marks the point of attachment. Trp(βS-Me,7-OMe) = COc1cccc2c([C@H](C)[C@H](N)C(=O)O)c[nH]c12; X49 = C[N+](C)(C)CC(=O)N[C@H]1C[C@H](C(=O)[*:2])N([*:1])C1; Trp(1-CH2COOH) = N[C@@H](Cc1cn(CC(=O)O)c2ccccc12)C(=O)O; Phe(4-SO3H) = N[C@@H](Cc1ccc(S(=O)(=O)O)cc1)C(=O)O; X54 = O=C(O)c1c(F)cc(C[C@H](N[*:1])C(=O)[*:2])cc1F; Trp(7-CN) = N#Cc1cccc2c(C[C@H](N)C(=O)O)c[nH]c12; Trp(7-Cl) = N[C@@H](Cc1c[nH]c2c(Cl)cccc12)C(=O)O; Phe(4-CONH2) = NC(=O)c1ccc(C[C@H](N)C(=O)O)cc1; Phe(4-COOH) = N[C@@H](Cc1ccc(C(=O)O)cc1)C(=O)O; Trp(7-aza) = N[C@@H](Cc1c[nH]c2ncccc12)C(=O)O; Pip(5R-OH) = O=C(O)[C@@H]1CC[C@@H](O)CN1; X1 = O=C([C@@H]1CC[C@H](N[*:1])C1)[*:2]; X53 = O=C([C@H](Cc1ccncc1F)N[*:1])[*:2]; Pip(4-aza) = O=C(O)[C@@H]1CNCCN1; 4Pal = N[C@@H](Cc1ccncc1)C(=O)O; NMeE = CN[C@@H](CCC(=O)O)C(=O)O; αMeS = C[C@](N)(CO)C(=O)O; Nle = CCCC[C@H](N)C(=O)O; Me2NCH2CH2 = CN(C)CC*; Sar = CNCC(=O)O

Columns and labels:
[1] = target: T1, human soluble TNFR1 (sTNFR1) (Homo sapiens, UniProt P19438); assay: Human sTNFR1-peptide displacement assay (LanthaScreen Eu TR-FRET binding assay)
T1 construct: made in house; host or cells: Sf21 (baculovirus)
T1 sequence (P19438 with tags, fused parts or gaps): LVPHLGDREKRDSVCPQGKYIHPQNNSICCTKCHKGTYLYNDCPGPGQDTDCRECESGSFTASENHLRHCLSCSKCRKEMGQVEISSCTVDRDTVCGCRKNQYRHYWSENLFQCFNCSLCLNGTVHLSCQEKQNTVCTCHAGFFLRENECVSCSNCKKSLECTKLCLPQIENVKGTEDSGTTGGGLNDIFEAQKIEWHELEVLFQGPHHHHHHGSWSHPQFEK
Summary of the method: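 Readout is the 665/615 nm TR-FRET ratio (Eu anti-His donor, streptavidin-Alexa647 acceptor), normalized to DMSO and saturating displacer, fit by Morrison-based five-parameter logistic for Kd^app. His-tagged sTNFR1 (1-211) prebound to 100 nM biotinylated peptide SEQ ID NO.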

[2] = target: T2, TNFα-induced NF-κB signal transduction pathway (TNFR1 signaling) in THP-1 cells (Homo sapiens, UniProt P19438); assay: THP-1 Lucia NF-κB reporter cell assay, inhibition of TNFα-induced NF-κB signaling; format: cell-based; details: THP-1 NF-κB Lucia reporter cells, 10 ng/mL TNFα, 16-18 h, secreted luciferase; read-out: THP-1 IC50
T2 sequence (P19438 30-455): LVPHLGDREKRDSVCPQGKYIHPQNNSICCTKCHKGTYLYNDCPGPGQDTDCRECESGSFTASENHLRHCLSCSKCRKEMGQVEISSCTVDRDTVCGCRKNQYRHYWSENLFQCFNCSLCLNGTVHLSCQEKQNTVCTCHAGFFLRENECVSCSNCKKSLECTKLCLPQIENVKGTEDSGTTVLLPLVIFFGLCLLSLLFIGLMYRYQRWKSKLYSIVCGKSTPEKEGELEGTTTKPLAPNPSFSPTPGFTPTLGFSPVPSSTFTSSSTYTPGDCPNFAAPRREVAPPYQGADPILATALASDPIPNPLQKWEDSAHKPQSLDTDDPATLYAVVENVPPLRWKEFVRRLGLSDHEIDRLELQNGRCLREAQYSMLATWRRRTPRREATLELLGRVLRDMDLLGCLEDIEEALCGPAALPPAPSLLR
Summary of the method: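 THP-1 Lucia NF-κB cells, 20k/well, no selection antibiotics; peptide pre-inc 1 h 37 °C; + recombinant human TNFα 10 ng/mL final; o.n.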

Compound | Kd [1] | IC50 [2]
CCCC[C@@H]1NC(=O)[C@@H]2CC[C@@H](C2)NC(=O)[C@H]([C@@H](C)c2c[nH]c3c(OC)cccc23)NC(=O)CN(C)C(=O)[C@H](Cc2cc(F)c(C(=O)O)c(F)c2)NC(=O)[C@H](Cc2ccc(C(N)=O)cc2)NC(=O)[C@](C)(CO)NC(=O)[C@H](Cc2c[nH]c3c(C#N)cccc23)NC(=O)[C@H](Cc2cc(F)c(C(=O)O)c(F)c2)NC(=O)[C@H](CC(N)=O)NC(=O)[C@H]2C[C@H](NC(=O)C[N+](C)(C)C)CN2C(=O)[C@H](Cc2c[nH]c3ncccc23)NC(=O)[C@@H]2CC[C@@H](O)CN2C(=O)[C@H](Cc2ccncc2)NC1=O [SEQ ID NO. 193] (cyclo([4Pal][Pip(5R-OH)][Trp(7-aza)][X49]N[X54][Trp(7-CN)][αMeS][Phe(4-CONH2)][X54][Sar][Trp(βS-Me,7-OMe)][X1][Nle])) | 0.15 nM | 1 nM
CCCC[C@@H]1NC(=O)[C@@H]2CC[C@@H](C2)NC(=O)[C@H]([C@@H](C)c2c[nH]c3c(OC)cccc23)NC(=O)CN(C)C(=O)[C@H](Cc2ccc(OCCN(C)C)cc2)NC(=O)[C@H](Cc2ccc(C(=O)O)cc2)NC(=O)[C@](C)(CO)NC(=O)[C@H](Cc2c[nH]c3c(Cl)cccc23)NC(=O)[C@H](Cc2ccncc2)NC(=O)[C@H](CC(N)=O)NC(=O)[C@H](CCC(=O)O)N(C)C(=O)[C@H](Cc2c[nH]c3ccccc23)NC(=O)[C@@H]2CNCCN2C(=O)[C@H](Cc2ccncc2)NC1=O [SEQ ID NO. 195] (cyclo([4Pal][Trp(7-Cl)][αMeS][Phe(4-COOH)]Y(Me2NCH2CH2)[Sar][Trp(βS-Me,7-OMe)][X1][Nle][4Pal][Pip(4-aza)]W[NMeE]N)) | 0.28 nM | 1.6 nM
CCCC[C@@H]1NC(=O)[C@@H]2CC[C@@H](C2)NC(=O)[C@H]([C@@H](C)c2c[nH]c3c(OC)cccc23)NC(=O)CN(C)C(=O)[C@H](Cc2ccc(O)cc2)NC(=O)[C@H](Cc2ccc(C(=O)O)cc2)NC(=O)[C@](C)(CO)NC(=O)[C@H](Cc2c[nH]c3c(Cl)cccc23)NC(=O)[C@H](Cc2ccncc2)NC(=O)[C@H](CC(N)=O)NC(=O)[C@H](CCC(=O)O)N(C)C(=O)[C@H](Cc2cn(CC(=O)O)c3ccccc23)NC(=O)[C@@H]2CNCCN2C(=O)[C@H](Cc2ccncc2)NC1=O [SEQ ID NO. 197] (cyclo([4Pal][Trp(7-Cl)][αMeS][Phe(4-COOH)]Y[Sar][Trp(βS-Me,7-OMe)][X1][Nle][4Pal][Pip(4-aza)][Trp(1-CH2COOH)][NMeE]N)) | 0.36 nM | 0.7 nM
CCCC[C@@H]1NC(=O)[C@@H]2CC[C@@H](C2)NC(=O)[C@H]([C@@H](C)c2c[nH]c3c(OC)cccc23)NC(=O)CN(C)C(=O)[C@H](Cc2ccc(O)cc2)NC(=O)[C@H](Cc2ccc(C(=O)O)cc2)NC(=O)[C@](C)(CO)NC(=O)[C@H](Cc2c[nH]c3c(Cl)cccc23)NC(=O)[C@H](Cc2ccncc2F)NC(=O)[C@H](CC(N)=O)NC(=O)[C@H](CCC(=O)O)N(C)C(=O)[C@H](Cc2c[nH]c3ccccc23)NC(=O)[C@@H]2CNCCN2C(=O)[C@H](Cc2ccncc2)NC1=O [SEQ ID NO. 198] (cyclo([4Pal][Pip(4-aza)]W[NMeE]N[X53][Trp(7-Cl)][αMeS][Phe(4-COOH)]Y[Sar][Trp(βS-Me,7-OMe)][X1][Nle])) | 0.31 nM | 0.8 nM
CCCC[C@@H]1NC(=O)[C@@H]2CC[C@@H](C2)NC(=O)[C@H]([C@@H](C)c2c[nH]c3c(OC)cccc23)NC(=O)CN(C)C(=O)[C@H](Cc2ccc(O)cc2)NC(=O)[C@H](Cc2ccc(S(=O)(=O)O)cc2)NC(=O)[C@](C)(CO)NC(=O)[C@H](Cc2c[nH]c3c(Cl)cccc23)NC(=O)[C@H](Cc2ccncc2)NC(=O)[C@H](CC(N)=O)NC(=O)[C@H](CCC(=O)O)N(C)C(=O)[C@H](Cc2c[nH]c3ccccc23)NC(=O)[C@@H]2CNCCN2C(=O)[C@H](Cc2ccncc2)NC1=O [SEQ ID NO. 199] (cyclo([4Pal][Trp(7-Cl)][αMeS][Phe(4-SO3H)]Y[Sar][Trp(βS-Me,7-OMe)][X1][Nle][4Pal][Pip(4-aza)]W[NMeE]N)) | 0.32 nM | 1 nM
